Key:
[1] = target: T1, GST-tagged KRAS G12D (2-169) (Homo sapiens, UniProt P01116, G12D); test: Nucleotide exchange assay (NEA), HTRF of SOS-mediated GTP-DY-647P1 binding; assay type: biochemical; conditions: 5 nM GST-KRAS G12D, 20 nM SOScat, 150 nM GTP; compound 1 h at RT
T1 construct: GST-tagged KRAS^G12D (2-169, Reaction Biology, MSC-11-539); purchased Reaction Biology MSC-11-539 (KRAS G12D); MSC-11-502 (SOS1cat)
Text: This activity is tightly regulated by GTPase activating proteins (GAPs) and guanine nucleotide exchange factors (GEFs). GEFs, such as SOS1/2, activate Ras proteins by exchanging GDP for GTP, thus returning Ras to its active conformation (Simanshu, Nissley, & McCormick, 2017). […] Homogenous time resolved fluorescence (HTRF) was used to detect SOS-mediated binding of a fluorescent GTP analog, GTP-DY-647P1 (Jena Biosciences NU-820-647P1) to GST-tagged KRAS^G12D (2-169, Reaction Biology, MSC-11-539).
GST-tagged KRAS^G12D (2-169) and anti-GST MAb Tb Cryptate Gold (CisBio 61GSTTLB) were diluted into assay buffer (20 mM HEPES, pH 7.3, 150 mM NaCl, 5 mM MgCl2, 0.05% BSA 0.0025% NP40, 1 mM DTT) to prepare a 2.5× donor solution. 5× compound was added to the protein mixture and incubated for 1 h at RT. 2.5× acceptor solution containing SOS1cat (564-1049, Reaction Biology MSC-11-502) and GTP-DY-647P1 were then added to the donor KRAS mixture such that the final concentration of the reaction contained 5 nM GST-tagged KRAS^G12D (2-169), 20 nM SOScat, and 150 nM GTP. The reaction was monitored using at RT with the Envision multimode plate reader (Ex/Em 337/665, […]) up to 90 minutes at 5 minute intervals. Data was blanked to reactions without SOS1 and % inhibition was calculated such that DMSO only=0% and blank=100%. Curve fitting was done using a 4 parameter fit. NEA KRAS G12D ID50 (uM) values of selected compounds are depicted in Table 2 with compounds having a value<0.01 uM as ++++; >0.01 uM to 0.1 uM as +++; >0.1 uM to 1 uM as ++; >1 uM to 20 uM as +; and >20 uM as NA.

KRAS G12D/RAF1 = target: T2, KRAS G12D/RAF1 (Homo sapiens, UniProt P01116, G12D); test: Protein-protein interaction (PPI) HTRF assay KRAS G12D/RAF1; assay type: binding; conditions: KRAS G12D/RAF1, GppNHp-loaded KRAS; 30 minutes pre-incubation
T2 construct: KRAS (1-169) proteins were expressed in E. coli at 18° C; His6-MBP (N, cleaved yes); made in house; host or cells: E. coli
Experimental: Biotinylated KRAS wt and KRAS G12DNV proteins were expressed and purified in conditions similar to those previously reported (Tran, et al., 2021) (Zhang, et al., 2020). Briefly, KRAS (1-169) proteins were expressed in E. coli at 18° C. with an upstream TEV cleavage site (ENLFYQS) followed an Avi tag sequence ([…]). KIRAS expression constructs contained both a His6 and maltose-binding protein (MBP) tags at the N-terminus for Ni-NTA column purification prior to overnight TEV cleavage and MBP column purification. The avi-tagged NRAS expression construct contained both a His6 tag and SUMO cleavage sige at the N-terminus for Ni-NTA column purification followed by His-ULP1 digestion overnight. All avi-tagged RAS proteins were dialyzed into buffer containing ATP, biotin, and BirA followed by purification over a second Ni-NTA column and then run over a size exclusion HiLoad™ 26/600 Superdex™ column in 20 mM HEPES, pH 7.5, 300 mM NaCl, 5 mM MgCl2, and 1 mM TCEP. Fractions containing the protein of interest were pooled, concentrated, and confirmed by intact mass spectrometry. To prepare ‘GTP’ loaded KRAS and NRAS, biotinylated KRAS or NRAS was nucleotide exchanged from GDP-bound protein to GppNHp-bound (Jena Biosciences, NU-401-50) protein in the presence of alkaline phosphatase and excess GppNHp as previously described and the resulting nucleotide content was confirmed by HPLC reverse phase analytical chromatography (Donohue, et al., 2019) (Tran, et al., 2021).
His-tagged RAF1 (52-131) was similarly expressed in E. coli at 18° C. overnight with an upstream TEV cleavage site. His-tagged RAF1 expression construct contained both a His6 and MBP tags at the N-terminus for Ni-NTA column purification followed by MBP-tagged TEV digestion overnight. RAF1 protein samples were further purified over a MBP column followed by a Ni-NTA column and a second MBP column. The fractions containing the protein of interest were pooled, concentrated, and further purified over a HiLoad™ 16/600 Superdex™ 75 pg size exclusion column into 20 mM HEPES, pH8.0, 200 mM NaCl, 5 mM TCEP.
When RAS proteins are in the active GTP-bound conformation, they bind the effector protein RAF1 at the N-terminus Ras-binding domain (RBD, residues 52-131) (Tran, et al., 2021). Homogenous time resolved fluorescence (HTRF) was used to monitor the interaction between wt or mutant KRAS and RAF1 or wt NRAS and RAFT. Compounds were assayed in the presence of KRAS G12D/V and RAF1 versus wt KRAS to assess activity against mutant and w.t. KRAS. Similarly, compounds were then assayed in the presence of w.t. NRAS and RAF1 to assess RAS isoform selectivity. In all assay formats, His-tagged RAF1 protein was incubated with the HTRF donor, anti-6His Tb Cryptate gold (Cisbio 61DB10RDF), and biotinylated RAS proteins were incubated with the HTRF acceptor, streptavidin-d2 (CisBio 610SADLA). The intensity of the fluorescence signal emitted is proportional to binding between the two proteins. The donor solution was prepared by mixing 16 nM His-tagged RAF1 in protein dilution buffer with 1:100 anti-6His Tb cryptate in PPI-Terbium detection buffer. 16 nM biotinylated RAS protein was diluted into protein dilution buffer (50 mM Tris-HCl pH 7.5, 150 mM NaCl, 0.1 mM MgCl2, 1 mM TCEP, 0.005% Tween20) and mixed with 1:2000 Streptavidin-d2 diluted in PPI-Terbium detection buffer (CisBio 61DB10RDF). 50× compound in DMSO was mixed with 16 nM KRAS-acceptor solution and incubated for 30 minutes at room temperature. After compound pre-incubation with KRAS, the RAF1 donor solution was added to the KRAS-acceptor solution and incubated for 1 hour at room temperature. The fluorescence signal emitted was monitored at 665 nm and 615 nm using an Envision multimode plate reader. The HTRF ratio (665/615) was calculated and normalized to 0% inhibition in the absence of compound and 100% inhibition in the presence of untagged RAF1 protein. […]

T2 sequence (P01116 1-169 isoform P01116-2 G12D): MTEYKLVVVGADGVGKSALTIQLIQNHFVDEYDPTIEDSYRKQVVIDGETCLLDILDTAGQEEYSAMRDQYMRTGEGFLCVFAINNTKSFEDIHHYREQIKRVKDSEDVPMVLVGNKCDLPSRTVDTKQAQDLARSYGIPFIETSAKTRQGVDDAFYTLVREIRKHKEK
T1 sequence (P01116 2-169 isoform P01116-2 G12D): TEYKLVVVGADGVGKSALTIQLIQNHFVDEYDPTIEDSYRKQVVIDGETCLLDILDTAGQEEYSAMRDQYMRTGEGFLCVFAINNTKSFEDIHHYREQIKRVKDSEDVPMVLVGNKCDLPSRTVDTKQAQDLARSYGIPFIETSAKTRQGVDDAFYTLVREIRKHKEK

## O=C1NC(=O)[C@@H]2CN(c3nc(OC[C@@]45CCCN4C[C@H](F)C5)nc4c3CO[C@@]3(CCc5c(Cl)cccc53)C4)C[C@H]12 [Compound 33, (3aR,6aS)-5-[(7S)-4′-chloro-2-[[(2R,8S)-2-fluoro-1,2,3,5,6,7-hexahydropyrrolizin-8-yl]methoxy]spiro[5,8-dihydropyrano[4,3-d]pyrimidine-7,1′-indane]-4-yl]-3a,4,6,6a-tetrahydropyrrolo[3,4-c]pyrrole-1,3-dione]
[1]
  IC50: 100 to 1000 nM
KRAS G12D/RAF1
  IC50: 10000 to 100000 nM

## CC(C)NC(=O)c1cc2n(n1)CCCN(c1nc(OC[C@@]34CCCN3C[C@H](F)C4)nc3c1CO[C@@]1(CCc4c(Cl)cccc41)C3)C2 [Compound 35, 5-[(7S)-4′-chloro-2-[[(2R,8S)-2-fluoro-1,2,3,5,6,7-hexahydropyrrolizin-8-yl]methoxy]spiro[5,8-dihydropyrano[4,3-d]pyrimidine-7,1′-indane]-4-yl]-N-isopropyl-4,6,7,8-tetrahydropyrazolo[1,5-a][1,4]diazepine-2-carboxamide]
[1]
  IC50: 10 to 100 nM
KRAS G12D/RAF1
  IC50: > 100000 nM

## CN(C)C(=O)c1nn2c(c1Cl)CN(c1nc(OC[C@@]34CCCN3C[C@H](F)C4)nc3c1CO[C@@]1(CCc4c(Cl)cccc41)C3)CCC2 [Compound 36, 3-chloro-5-[(7S)-4′-chloro-2-[[(2R,8S)-2-fluoro-1,2,3,5,6,7-hexahydropyrrolizin-8-yl]methoxy]spiro[5,8-dihydropyrano[4,3-d]pyrimidine-7,1′-indane]-4-yl]-N,N-dimethyl-4,6,7,8-tetrahydropyrazolo[1,5-a][1,4]diazepine-2-carboxamide]
[1]
  IC50: < 10 nM
KRAS G12D/RAF1
  IC50: 10000 to 100000 nM

## CN(O)C(=O)c1cc2n(n1)CCCN(c1nc(OC[C@@]34CCCN3C[C@H](F)C4)nc3c1CO[C@@]1(CCc4c(Cl)cccc41)C3)C2 [Compound 37, 5-[(7S)-4′-chloro-2-[[(2R,8S)-2-fluoro-1,2,3,5,6,7-hexahydropyrrolizin-8-yl]methoxy]spiro[5,8-dihydropyrano[4,3-d]pyrimidine-7,1′-indane]-4-yl]-N-hydroxy-N-methyl-4,6,7,8-tetrahydropyrazolo[1,5-a][1,4]diazepine-2-carboxamide]
[1]
  IC50: < 10 nM
KRAS G12D/RAF1
  IC50: > 100000 nM

## O=C(c1cc2n(n1)CCCN(c1nc(OC[C@@]34CCCN3C[C@H](F)C4)nc3c1CO[C@@]1(CCc4c(Cl)cccc41)C3)C2)N1CCOCC1 [Compound 38, morpholino-[5-[(7S)-4′-chloro-2-[[(2R,8S)-2-fluoro-1,2,3,5,6,7-hexahydropyrrolizin-8-yl]methoxy]spiro[5,8-dihydropyrano[4,3-d]pyrimidine-7,1′-indane]-4-yl]-4,6,7,8-tetrahydropyrazolo[1,5-a][1,4]diazepin-2-yl]methanone; 2,2,2-trifluoroacetic acid]
[1]
  IC50: < 10 nM
KRAS G12D/RAF1
  IC50: 10000 to 100000 nM

## CN(C)C(=O)c1cc2n(n1)CCCN(c1nc(OC[C@@]34CCCN3C[C@H](F)C4)nc3c1COC1(CCCc4ccc(O)c(Cl)c41)C3)C2 (stereo partly drawn) [Compound 40, 5-[8′-chloro-7′-hydroxy-2-[[(2R,8S)-2-fluoro-1,2,3,5,6,7-hexahydropyrrolizin-8-yl]methoxy]spiro[5,8-dihydropyrano[4,3-d]pyrimidine-7,1′-tetralin]-4-yl]-N,N-dimethyl-4,6,7,8-tetrahydropyrazolo[1,5-a][1,4]diazepine-2-carboxamide]
[1]
  IC50: 10 to 100 nM
KRAS G12D/RAF1
  IC50: > 100000 nM

## N=S1(=O)CCN(C(=O)c2nn3c(c2Cl)CN(c2nc(OC[C@@]45CCCN4C[C@H](F)C5)nc4c2CO[C@@]2(CCc5c(Cl)cccc52)C4)CCC3)CC1 [Compound 52, [3-chloro-5-[(7S)-4′-chloro-2-[[(2R,8S)-2-fluoro-1,2,3,5,6,7-hexahydropyrrolizin-8-yl]methoxy]spiro[5,8-dihydropyrano[4,3-d]pyrimidine-7,1′-indane]-4-yl]-4,6,7,8-tetrahydropyrazolo[1,5-a][1,4]diazepin-2-yl]-(1-imino-1-oxo-1,4-thiazinan-4-yl)methanone]
[1]
  IC50: < 10 nM
KRAS G12D/RAF1
  IC50: 10000 to 100000 nM

## CNCc1nn2c(c1Cl)CN(c1nc(OC[C@@]34CCCN3C[C@H](F)C4)nc3c1CO[C@@]1(CCc4c(Cl)cccc41)C3)CCC2 [Compound 59, 1-[3-chloro-5-[(7S)-4′-chloro-2-[[(2R,8S)-2-fluoro-1,2,3,5,6,7-hexahydropyrrolizin-8-yl]methoxy]spiro[5,8-dihydropyrano[4,3-d]pyrimidine-7,1′-indane]-4-yl]-4,6,7,8-tetrahydropyrazolo[1,5-a][1,4]diazepin-2-yl]-N-methyl-methanamine]
[1]
  IC50: 10 to 100 nM
KRAS G12D/RAF1
  IC50: > 100000 nM

## CS(=O)(=O)c1cc2n(n1)CCCN(c1nc(OC[C@@]34CCCN3C[C@H](F)C4)nc3c1CO[C@@]1(CCc4c(Cl)cccc41)C3)C2 [Compound 62, (7S)-4′-chloro-2-[[(2R,8S)-2-fluoro-1,2,3,5,6,7-hexahydropyrrolizin-8-yl]methoxy]-4-(2-methylsulfonyl-4,6,7,8-tetrahydropyrazolo[1,5-a][1,4]diazepin-5-yl)spiro[5,8-dihydropyrano[4,3-d]pyrimidine-7,1′-indane]]
[1]
  IC50: 10 to 100 nM
KRAS G12D/RAF1
  IC50: > 100000 nM

## CN1Cc2c(nc(OC[C@@]34CCCN3C[C@H](F)C4)nc2N2CCC[C@]3(C2)NC(=O)NC3=O)C[C@]12CCCc1ccccc12 [Compound 71, (5R)-9-[(7S)-2-[[(2R,8S)-2-fluoro-1,2,3,5,6,7-hexahydropyrrolizin-8-yl]methoxy]-6-methyl-spiro[5,8-dihydropyrido[4,3-d]pyrimidine-7,1′-tetralin]-4-yl]-1,3,9-triazaspiro[4.5]decane-2,4-dione]
[1]
  IC50: 100 to 1000 nM
KRAS G12D/RAF1
  IC50: > 100000 nM
